Data set [1] is described as follows: Hygroscopicity: water/weight uptake at 90% relative humidity. The format is physicochemical. The conditions noted are these: for water uptake (weight uptake): at 90% relative humidity (RH) at 25° C.; for hygroscopicity (in words): judged from uptake at 90% relative humidity.
The target in a further data set is IMPDH human type II (Homo sapiens, UniProt P12268). The conditions noted are these: general statement; disclosed in the Compound 1 patents; cited from earlier work.
The nature of data set [2]: Maturation study of Form A1: slurry in solvent, excess solid analysed by XRPD. The data set is classed as physicochemical. The conditions noted are these: about 10 mg slurried in 500 μl solvent, shaken at 25-30° C. for 24 hrs. Here is the method:
X-ray powder diffraction patterns for the samples were acquired on a Bruker AXS/Siemens D5000 diffractometer using CuKα radiation (40 kV, 40 mA), ?-? goniometer, automatic divergence and receiving slits, a graphite secondary monochromator and a scintillation counter. The data were collected over an angular range of 2° to 42° 2? in continuous scan mode using a step size of 0.02° 2? and a step time of 1 second. Samples run under ambient conditions were prepared as flat plate specimens using powder as received without grinding. Approximately 25-50 mg of the sample was gently packed into 12 mm diameter, 0.5 mm deep cavities cut into polished, zero-background (510) silicon wafers (The Gem Dugout, 1652 Princeton Drive, Pennsylvania State College, PA 16803, USA). All specimens were run both stationary and rotated in their own plane during analysis. A further specimen was run using silicon powder as an internal standard to correct for any peak displacement. Samples run under non-ambient conditions were packed into a stainless steel cavity sample holder equipped with a Pt 100 thermocouple for temperature monitoring. Low temperature data were recorded using an Anton Paar TTK450 variable temperature camera attached to the Bruker AXS/Siemens D5000 diffractometer. […] The excess solid was removed by filtration and analysed by XRPD.

The text below walks through data of patent US7605270B2, “Polymorphic forms of (S).-tetrahydrofuran-3-yl-3-(3-(3-methoxy-4-(oxazol-5-yl) phenyl) ureido) benzylcarbamate” (Vertex Pharmaceuticals Incorporated, priority 2005, dated 2009).

Where a name gives a salt, the structure may show the parent alone.

In the case of `COc1cc(NC(=O)Nc2cccc(CNC(=O)O[C@H]3CCOC3)c2)ccc1-c1cnco1` [Form C3, (S)-tetrahydrofuran-3-yl 3-(3-(3-methoxy-4-(oxazol-5-yl)phenyl)ureido)benzylcarbamate], in data set [1], the “water uptake (weight uptake)” value is 3% and the “hygroscopicity (in words)” value is on record as “moderately hygroscopic”.
Regarding `COc1cc(NC(=O)Nc2cccc(CNC(=O)O[C@H]3CCOC3)c2)ccc1-c1cnco1` [Compound 1, (S)-tetrahydrofuran-3-yl 3-(3-(3-methoxy-4-(oxazol-5-yl)phenyl)ureido)benzylcarbamate], the “IMPDH inhibition (in words)” value at IMPDH human type II is “potent IMPDH inhibitor”.
`COc1cc(NC(=O)Nc2cccc(CNC(=O)O[C@H]3CCOC3)c2)ccc1-c1cnco1` [Form E5 HCl salt, (S)-tetrahydrofuran-3-yl 3-(3-(3-methoxy-4-(oxazol-5-yl)phenyl)ureido)benzylcarbamate, HCl salt] had an uptake in data set [1] (at 90% relative humidity) of 22 % w/w. In addition, the “hygroscopicity (in words)” value in data set [1] (HCl salt) was “highly hygroscopic”.
As to `COc1cc(NC(=O)Nc2cccc(CNC(=O)O[C@H]3CCOC3)c2)ccc1-c1cnco1` [Form A1, (S)-tetrahydrofuran-3-yl 3-(3-(3-methoxy-4-(oxazol-5-yl)phenyl)ureido)benzylcarbamate], in data set [1], the “water uptake (weight uptake)” value was “less than 0.5%” and the “hygroscopicity (in words)” value is on record as “non-hygroscopic”. Also, in data set [2], the “XRPD patterns observed after maturation, all 31 solvents” value is listed as “consistent with the pattern of Form A1”.
